In the OPERA property sets (Mansouri et al. 2018):

For CCCC(C)(C)C(=O)Nc1ccc(Cl)cc1, which logP is on record?
Its logP is 3.83.

With CCNc1nc(Cl)nc(NC2CCC2)n1 as the compound, how does the logP read?
The logP was 2.77.

With C=CCNc1nc(Cl)nc(NCC=C)n1 as the compound, how does the logP read?
The logP was 2.75.

Which logP does the source give for CCNc1nc(Cl)nc(NC2CCCCC2)n1 here?
The logP was 3.63.

Which logP does the source give for CN(C)C(=O)Nc1cccc(Cc2ccccc2)c1 here?
The logP was 2.83.

With CCCc1ccc(NC(=O)N(C)C)cc1 as the compound, how does the logP read?
Its logP is 2.55.

For O=C(Cc1ccccc1)Nc1cccc(Cl)c1, which logP is on record?
Its logP is 3.61.

Which logP does the source give for C=CC(C)C(=O)Nc1ccc(Cl)cc1Cl (centres undefined) here?
Its logP is 3.49.

Which logP does the source give for CNC(=O)Nc1cccc(OC)c1 here?
The logP was 1.26.

With CC1(NC(=O)Nc2ccccc2)CCCCC1 as the compound, how does the logP read?
The logP was 3.6.

With CC(C)CNC(=O)Nc1ccc(Cl)c(Cl)c1 as the compound, how does the logP read?
The logP was 4.48.

Which logP does the source give for CCNc1nc(Cl)nc(NCC2CC2)n1 here?
The logP was 2.85.

Which logP does the source give for CCCCCC(C)Nc1nc(Cl)nc(NCC)n1 (centres undefined) here?
The logP was 4.74.

Which logP does the source give for CCCC(C)C(=O)Nc1ccc(C)c(Cl)c1 (centres undefined) here?
The logP was 4.31.
